This note sets out measurements from patent US7179836B2, “Chemical compounds” (SmithKline Beecham Corporation, priority 2001, dated 2007).

This experiment has as its target Recombinant GST-Tie2 (Homo sapiens, UniProt Q02763). In words: Tie2 fluorescence polarization kinase activity assay (TIE2-FP). The conditions noted are these: 200 μM ATP, 1 nM activated enzyme, 200 μM peptide. It counts as biochemical. As to the method:
Tie2 Fluorescence Polarization Kinase Activity Assay (TIE2-FP).
Activation of Recombinant Tie2 Activation:
Recombinant GST-Tie2 is activated by incubating the enzyme in 20 mM Tris-HCl, pH 7.5, 12 mM MgCl2, 100 mM NaCl, 20 μM sodium vanidate, 1 mM DTT and 300 μM ATP at room temperature for 2 hours. The activation mixture is then passed through a NAP-25 desalting column (Pharmacia Biotech cat. no. 17-0852-02) to remove the free ATP. The activated enzyme is stored as aliquots at −80° C. in 20 mM Tris-HCl, pH 7.5 and 100 mM NaCl.
The final assay conditions are 50 mM HEPES, pH 7.5, 5% DMSO (when screening compounds), 200 μM ATP, 5 mM MgCl2, 1 mM DTT, 50 μM sodium vanidate, 1 nM activated enzyme, and 200 μM peptide. IC50's of compounds are measured under subsaturating ATP (200 μM) and varing concentrations of activated Tie2 and peptide substrate (RFWKYEFWR-OH; MW 1873 Da, TFA salt). Panvera Anti-phosphotyrosine antibody (Cat#P2840) and PTK Green Tracer (Cat#P2842) are used to detect the phosphorylated peptide. Polarization is measured on a TECAN Polarion in 138-second cycles for 30 minutes at room temperature. IC50's are then determined from the % polarization using normal calculation methods.

Chain of Recombinant GST-Tie2 (Q02763 23-1124): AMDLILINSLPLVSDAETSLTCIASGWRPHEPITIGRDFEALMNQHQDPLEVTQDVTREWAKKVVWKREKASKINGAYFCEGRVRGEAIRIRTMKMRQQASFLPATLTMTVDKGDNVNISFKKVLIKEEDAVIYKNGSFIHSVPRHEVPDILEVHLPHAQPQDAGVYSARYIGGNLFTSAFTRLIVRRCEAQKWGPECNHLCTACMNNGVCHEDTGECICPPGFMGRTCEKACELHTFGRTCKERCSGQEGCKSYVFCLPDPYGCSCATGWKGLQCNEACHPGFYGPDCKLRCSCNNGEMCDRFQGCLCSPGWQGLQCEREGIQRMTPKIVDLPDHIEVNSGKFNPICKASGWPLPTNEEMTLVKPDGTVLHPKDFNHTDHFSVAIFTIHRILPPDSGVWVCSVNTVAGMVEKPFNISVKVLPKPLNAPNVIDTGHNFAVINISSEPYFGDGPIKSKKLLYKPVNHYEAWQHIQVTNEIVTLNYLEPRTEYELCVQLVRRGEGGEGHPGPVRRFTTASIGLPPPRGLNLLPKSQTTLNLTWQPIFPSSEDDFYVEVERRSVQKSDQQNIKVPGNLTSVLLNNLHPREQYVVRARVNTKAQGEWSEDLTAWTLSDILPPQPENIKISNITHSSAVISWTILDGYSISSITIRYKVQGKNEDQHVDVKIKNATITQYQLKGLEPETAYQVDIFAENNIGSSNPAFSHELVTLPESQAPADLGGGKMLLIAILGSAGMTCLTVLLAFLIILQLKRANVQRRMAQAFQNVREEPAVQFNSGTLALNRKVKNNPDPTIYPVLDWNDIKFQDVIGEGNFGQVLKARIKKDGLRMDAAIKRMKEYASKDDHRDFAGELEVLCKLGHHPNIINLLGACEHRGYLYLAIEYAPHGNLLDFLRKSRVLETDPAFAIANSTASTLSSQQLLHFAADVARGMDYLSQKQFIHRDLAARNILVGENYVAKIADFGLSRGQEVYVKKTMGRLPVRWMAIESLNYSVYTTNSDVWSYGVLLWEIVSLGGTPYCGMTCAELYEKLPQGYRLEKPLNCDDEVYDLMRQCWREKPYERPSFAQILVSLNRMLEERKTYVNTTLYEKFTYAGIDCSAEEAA

For `NC(=O)c1c(-c2ccc(NC(=O)Nc3cc(C(F)(F)F)ccc3F)cc2)csc1N` [Example 1, 2-Amino-4-{4-[3-(2-fluoro-5-trifluoromethyl-phenyl)-ureido]-phenyl}-thiophene-3-carboxylic acid amide], the IC50 is less than 100 nM.
